In patent US7683182B2, “Crystal forms of 2-(3-fluoro-4-hydroxyphenyl)-7-vinyl-1,3-benzoxazol-5-ol” (Wyeth LLC, priority 2005, dated 2010):

Legend:
Type in all cases: physicochemical
[1] = Dynamic vapor sorption (DVS), hygroscopicity; settings: for DVS gain: 0-90% RH; for Hygroscopicity (from DVS weight gain): DVS data of Table 2
From the text: Dynamic Vapor Sorption (Allentown, Pa.) was used to measure the hygroscopicity of the anhydrate and monohydrate of the invention (see FIGS. 6 and 7). The step conditions were three hours each at 0%, 30%, 52.5%, 75% and 90% RH, two full cycles.

[2] = Stability, separate study of micronized and non-micronized anhydrate (XRPD)
[3] = Stability studies, long term (XRPD, TGA, HPLC); settings: non-micronized, three months
Method: Non-micronized samples of monohydrate and anhydrate were stored at 40° C./75% RH for three months. The monohydrate was also stored at 40° C. without humidity control. During the three months, the samples were checked after two weeks, one month, two months, and three months.

[4] = Stability studies, medium term (XRPD and TGA)
Method: Samples of monohydrate were stored at room temperature, 56° C., and 70° C. for one week. At room temperature, humidity was maintained at 0% RH. Humidity was not controlled for the higher temperatures.
The samples were analyzed by XRPD and TGA.

[5] = Water solubility of the crystal forms; settings: Table 2 data
[6] = Stability studies, short term (XRPD)
[7] = 40° C. without humidity control

| DVS gain [1] | Hygroscopicity (from DVS weight gain) [1] | Transformation to the monohydrate (XRPD) ([2]; micronized, 25° C./60% RH, three months) | Transformation to the monohydrate (XRPD) ([2]; micronized, 40° C./75% RH, one month) | Transformation to the monohydrate (XRPD) ([2]; non-micronized, 40° C./75% RH) | Chemical stability (HPLC) ([3]; 40° C./75% RH) | Transformation of crystal form (XRPD and TGA) ([3]; 40° C./75% RH) | Dehydration on storage (XRPD and TGA) ([4]; 56° C., humidity not controlled, one week) | Dehydration on storage (XRPD and TGA) ([4]; 70° C., humidity not controlled, after 1 day) | Dehydration on storage (XRPD and TGA) ([4]; 70° C., humidity not controlled, after 4 days) | Dehydration on storage (XRPD and TGA) ([4]; 70° C., humidity not controlled, after 7 days) | Dehydration on storage (XRPD and TGA) ([4]; room temperature, 0% RH, one week) | Chemical stability (HPLC) [3, 7] | Transformation of crystal form (XRPD and TGA) [3, 7] | Stability of crystal form (XRPD) ([6]; 70° C. for one hour) | Stability of crystal form (XRPD) ([6]; 90° C. after one half hour) | Stability of crystal form (XRPD) ([6]; 90° C. after one hour) | SMILES | Water solubility compared between the two forms [5] |
| --- | --- | --- | --- | --- | --- | --- | --- | --- | --- | --- | --- | --- | --- | --- | --- | --- | --- | --- |
| 0.2% gain (0-90% RH) | largely non-hygroscopic | did not transform to the monohydrate | partially transform to the monohydrate | did not show any obvious transformation | chemically stable | did not transform | – | – | – | – | – | – | – | – | – | – | C=Cc1cc(O)cc2nc(-c3ccc(O)c(F)c3)oc12 [Anhydrate, 2-(3-fluoro-4-hydroxyphenyl)-7-vinyl-1,3-benzoxazol-5-ol] | – |
| 0.1% gain (0-90% RH) | largely non-hygroscopic | – | – | – | chemically stable | did not transform | no obvious dehydration | no obvious hydration | partially dehydrated | mostly dehydrated | no obvious dehydration | chemically stable | did not transform | stable | partially dehydrated | completely dehydrated | C=Cc1cc(O)cc2nc(-c3ccc(O)c(F)c3)oc12 [Monohydrate, 2-(3-fluoro-4-hydroxyphenyl)-7-vinyl-1,3-benzoxazol-5-ol] | significantly lower solubility than the anhydrate |
